Measurements as given in US20260070902A1, “SULFONYL DERIVATIVES AS CCR6 INHIBITORS” (Hoffmann-La Roche Inc., priority 2022, published 2026).
pIC50: −log10 of the molar value.

Each compound was assayed against T1, human CCR6 (Homo sapiens, UniProt P51684) (assay: Human CCR6-CRE reporter assay). Settings: relative -Log IC50; 293FT cells transfected with human CCR6 and CRE-luciferase reporter; 6 μM Forskolin, 6 nM CCL20; 5 h.
T1 sequence (P51684 1-374): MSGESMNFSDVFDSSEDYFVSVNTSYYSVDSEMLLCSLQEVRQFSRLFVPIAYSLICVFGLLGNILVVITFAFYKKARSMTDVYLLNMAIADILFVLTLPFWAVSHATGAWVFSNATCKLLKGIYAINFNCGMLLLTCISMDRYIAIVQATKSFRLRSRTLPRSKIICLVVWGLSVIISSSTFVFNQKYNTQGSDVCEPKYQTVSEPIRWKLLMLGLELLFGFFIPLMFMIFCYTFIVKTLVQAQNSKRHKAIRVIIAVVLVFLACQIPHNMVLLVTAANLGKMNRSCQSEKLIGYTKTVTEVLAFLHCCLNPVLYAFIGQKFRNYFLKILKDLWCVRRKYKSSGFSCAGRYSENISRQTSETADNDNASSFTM
Format: cell-based
Parameters: The second construct contained the open reading frame of human CCR6 in the pUNO1 backbone; host or cells: 293FT cells
Experimental: Human CCR6-CRE Reporter Assay
293FT cells were transfected with 2 constructs using TransIT-293 (Mirus). The first construct (pGL4.29, Promega) expressed the luciferase reporter gene luc2P in response to the binding of cAMP-induced CREB to the CREelement in its promoter. The second construct contained the open reading frame of human CCR6 in the pUNO1 backbone under the control of an enhanced CMV promoter (InVivoGen). 48 h after transfection, cells were harvested and diluted to 750,000 cells/ml in culture medium (DMEM, 10% FBS, 1× pen/strep (Gibco 15140)). Compounds were 2.5-fold serially diluted in DMSO. Further dilutions were made in assay medium (DMEM, 10% FBS, 1× pen/strep, 6 μM Forskolin, 6 nM CCL20). 4 μl of the compound solution was added to a white MW384 plate, followed by 20 μl of the cell suspension. Final DMSO concentration in the assay was 0.1%. The MW384 plate was placed in an incubator at 37° C., 5% CO2 for 5 h. Luciferase activity was determined by addition of 24 μl of a 2.5× diluted BriteLite luciferase solution (Perkin Elmer), followed by luminescence measurement using a VICTOR Plate reader (Perkin Elmer). […] The relative −Log IC50 was determined with GraphPad Prism 9 using a four-parameter dose-response model.

Row | SMILES | pIC50
1 | CNC(=O)c1ccc(-c2ccc(S(=N)(=O)[C@H]3CC[C@H](Nc4ccc(S(F)(F)(F)(F)F)cc4)CC3)cc2)nc1 (stereo partly drawn) [Example 107, N-methyl-6-(4-{[trans-4-{[4-(pentafluoro-λ^6-sulfanyl)phenyl]Amino}cyclohexyl]sulfonimidoyl}phenyl)pyridine-3-carboxamide] | 5.80
2 | O=S(=O)(c1ccc(-c2ccc3nnc([C@H]4CCNC4)n3c2)cc1)N1CCC(Nc2ccc(S(F)(F)(F)(F)F)cc2)CC1 [Example 166, N-[4-(pentafluoro-λ^6-sulfanyl)phenyl]-1-(4-{3-[(3S)-pyrrolidin-3-yl]-[1,2,4]triazolo[4,3-a]pyridin-6-yl}benzenesulfonyl)piperidin-4-amine] | 6.10
3 | Cc1cc(-c2ccc(S(=O)(=O)[C@H]3CC[C@H](Nc4ccc(S(F)(F)(F)(F)F)cc4)CC3)cc2)cn2c(C(C)C)cnc12 [Example 64, 4-(pentafluoro-λ^6-sulfanyl)-N-[trans-4-{4-[8-methyl-3-(propan-2-yl)imidazo[1,2-a]pyridin-6-yl]benzenesulfonyl}cyclohexyl]aniline] | 7.30
4 | CN(C)C(=O)c1cc(-c2ccc(S(=N)(=O)[C@H]3CC[C@H](Nc4ccc(S(F)(F)(F)(F)F)cc4)CC3)cc2)ccn1 (stereo partly drawn) [Example 109, N,N-dimethyl-4-(4-{[trans-4-{[4-(pentafluoro-λ^6-sulfanyl)phenyl]Amino}cyclohexyl]sulfonimidoyl}phenyl)pyridine-2-carboxamide] | 5.70
5 | N=S(=O)(c1ccc(-c2ccc3c(c2)NC(=O)C3)cc1)[C@H]1CC[C@H](Nc2ccc(S(F)(F)(F)(F)F)cc2)CC1 (stereo partly drawn) [Example 117, 6-(4-{[trans-4-{[4-(pentafluoro-λ^6-sulfanyl)phenyl]Amino}cyclohexyl]sulfonimidoyl}phenyl)-2,3-dihydro-1H-indol-2-one] | 6.60
6 | O=C1Cc2ccc(-c3ccc(S(=O)(=O)[C@H]4CC[C@H](Nc5ccc(S(F)(F)(F)(F)F)cc5)CC4)cc3)cc2CN1 [Example 53, 7-(4-{[trans-4-{[4-(pentafluoro-λ^6-sulfanyl)phenyl]Amino}cyclohexyl]sulfonyl}phenyl)-1,2,3,4-tetrahydroisoquinolin-3-one] | 7.10
7 | O=C1Cc2cc(-c3ccc(S(=O)(=O)[C@H]4CC[C@H](Nc5ccc(S(F)(F)(F)(F)F)cc5)CC4)cc3)ccc2CN1 [Example 54, 6-(4-{[trans-4-{[4-(pentafluoro-λ^6-sulfanyl)phenyl]Amino}cyclohexyl]sulfonyl}phenyl)-1,2,3,4-tetrahydroisoquinolin-3-one] | 7.30
8 | CN(C)C(=O)c1ccc(-c2ccc(S(=N)(=O)[C@H]3CC[C@H](Nc4ccc(S(F)(F)(F)(F)F)cc4)CC3)cc2)nc1 (stereo partly drawn) [Example 106, N,N-dimethyl-6-(4-{[trans-4-{[4-(pentafluoro-λ^6-sulfanyl)phenyl]Amino}cyclohexyl]sulfonimidoyl}phenyl)pyridine-3-carboxamide] | 5.80
9 | O=S(=O)(c1ccc(-c2ccc3nnc(C4CCCC4)n3c2)cc1)N1CCC(Nc2ccc(S(F)(F)(F)(F)F)cc2)CC1 [Example 31, 1-(4-{3-cyclopentyl-[1,2,4]triazolo[4,3-a]pyridin-6-yl}benzenesulfonyl)-N-[4-(pentafluoro-λ^6-sulfanyl)phenyl]piperidin-4-amine] | 7.20
10 | CN(C)C(=O)c1ccc(-c2ccc(S(=O)(=O)[C@H]3CC[C@H](Nc4ccc(S(F)(F)(F)(F)F)cc4)CC3)cc2)nc1 [Example 46, N,N-dimethyl-6-(4-{[trans-4-{[4-(pentafluoro-λ^6-sulfanyl)phenyl]Amino}cyclohexyl]sulfonyl}phenyl)pyridine-3-carboxamide] | 6.60
11 | O=S(=O)(c1ccc(-c2ccc3nccn3c2)cc1Cl)N1CCC(Nc2ccc(S(F)(F)(F)(F)F)cc2)CC1 [Example 79, 1-(2-chloro-4-{imidazo[1,2-a]pyridin-6-yl}benzenesulfonyl)-N-[4-(pentafluoro-λ^6-sulfanyl)phenyl]piperidin-4-amine] | 5.80
12 | O=c1cc(-c2ccc(S(=O)(=O)[C@H]3CC[C@H](Nc4ccc(S(F)(F)(F)(F)F)cc4)CC3)cc2)cc[nH]1 [Example 52, 4-(4-{[trans-4-{[4-(pentafluoro-λ^6-sulfanyl)phenyl]Amino}cyclohexyl]sulfonyl}phenyl)-1,2-dihydropyridin-2-one] | 7.40
13 | N#Cc1cnc2ccc(-c3ccc(S(=O)(=O)N4CCC(Nc5ccc(S(F)(F)(F)(F)F)cc5)CC4)c(Cl)c3)cn12 [Example 80, 6-{3-chloro-4-[(4-{[4-(pentafluoro-λ^6-sulfanyl)phenyl]Amino}piperidin-1-yl)sulfonyl]phenyl}imidazo[1,2-a]pyridine-3-carbonitrile] | 5.70
14 | N=S(=O)(c1ccc(-c2ccc3c(c2)CC(=O)N3)cc1)[C@H]1CC[C@H](Nc2ccc(S(F)(F)(F)(F)F)cc2)CC1 (stereo partly drawn) [Example 116, 5-(4-{[trans-4-{[4-(pentafluoro-λ^6-sulfanyl)phenyl]Amino}cyclohexyl]sulfonimidoyl}phenyl)-2,3-dihydro-1H-indol-2-one] | 6.70
15 | O=S(=O)(c1ccc(-c2cc3cc[nH]c3cn2)cc1)[C@H]1CC[C@H](Nc2ccc(S(F)(F)(F)(F)F)cc2)CC1 [Example 146, 4-(pentafluoro-λ^6-sulfanyl)-N-[trans-4-(4-{1H-pyrrolo[2,3-c]pyridin-5-yl}benzenesulfonyl)cyclohexyl]aniline] | 6.10
16 | O=C(NC1CC1)c1cccc(-c2ccc(S(=O)(=O)[C@H]3CC[C@H](Nc4ccc(S(F)(F)(F)(F)F)cc4)CC3)cc2)c1 [Example 144, N-cyclopropyl-4′-{[trans-4-{[4-(pentafluoro-λ^6-sulfanyl)phenyl]amino}cyclohexyl]sulfonyl}-[1,1′-biphenyl]-3-carboxamide] | 7.30
17 | CN(C)C(=O)c1cccc(-c2ccc(S(=N)(=O)[C@H]3CC[C@H](Nc4ccc(S(F)(F)(F)(F)F)cc4)CC3)cc2)c1 (stereo partly drawn) [Example 97, N,N-dimethyl-4′-{[trans-4-{[4-(pentafluoro-λ^6-sulfanyl)phenyl]Amino}cyclohexyl]sulfonimidoyl}-[1,1′-biphenyl]-3-carboxamide] | 6.00
18 | N=S(=O)(c1ccc(-c2ccc(C(N)=O)cn2)cc1)[C@H]1CC[C@H](Nc2ccc(S(F)(F)(F)(F)F)cc2)CC1 (stereo partly drawn) [Example 111, 6-(4-{[trans-4-{[4-(pentafluoro-λ^6-sulfanyl)phenyl]Amino}cyclohexyl]sulfonimidoyl}phenyl)pyridine-3-carboxamide] | 6.00
19 | O=C1Nc2ccc(-c3ccc(S(=O)(=O)[C@H]4CC[C@H](Nc5ccc(S(F)(F)(F)(F)F)cc5)CC4)cc3)cc2C12CC2 [Example 65, 5′-(4-{[trans-4-{[4-(pentafluoro-λ^6-sulfanyl)phenyl]amino}cyclohexyl]sulfonyl}phenyl)-1′,2′-dihydrospiro[cyclopropane-1,3′-indol]-2′-one] | 7.40
20 | N=S(=O)(c1ccc(-c2ccc3c(c2)C(=O)NCC3)cc1)[C@H]1CC[C@H](Nc2ccc(S(F)(F)(F)(F)F)cc2)CC1 (stereo partly drawn) [Example 114, 7-(4-{[trans-4-{[4-(pentafluoro-λ^6-sulfanyl)phenyl]Amino}cyclohexyl]sulfonimidoyl}phenyl)-1,2,3,4-tetrahydroisoquinolin-1-one] | 6.40
21 | CNC(=O)c1cc(-c2ccc(S(=N)(=O)[C@H]3CC[C@H](Nc4ccc(S(F)(F)(F)(F)F)cc4)CC3)cc2)ccn1 (stereo partly drawn) [Example 110, N-methyl-4-(4-{[trans-4-{[4-(pentafluoro-λ^6-sulfanyl)phenyl]Amino}cyclohexyl]sulfonimidoyl}phenyl)pyridine-2-carboxamide] | 6.50
22 | CP(C)(=O)c1ccc(-c2ccc(S(=O)(=O)[C@H]3CC[C@H](Nc4ccc(S(F)(F)(F)(F)F)cc4)CC3)cc2)cc1 [Example 57, 4-(pentafluoro-λ^6-sulfanyl)-N-[trans-4-{[4′-(dimethylphosphoryl)-[1,1′-biphenyl]-4-yl]sulfonyl}cyclohexyl]aniline] | 6.70
23 | Cc1cnc2ccc(-c3ccc(S(=O)(=O)N4CCC(Nc5ccc(S(F)(F)(F)(F)F)cc5)CC4)c(F)c3)cn12 [Example 67, 1-(2-fluoro-4-{3-methylimidazo[1,2-a]pyridin-6-yl}benzenesulfonyl)-N-[4-(pentafluoro-λ^6-sulfanyl)phenyl]piperidin-4-amine] | 6.20
